# Results as given in US8293211B2, “CB1 receptor antagonists and uses thereof” (MAKScientific, LLC, priority 2007, dated 2012).
# Where two headings read alike, the source gives them in different places.
# Columns and labels:
# [1] = system: Male Sprague-Dawley (SD) rats; assay: Food intake studies (experiments A, B, C), food intake and body weight; assay type: in vivo, rat; settings: for food intake, difference to rats treated with Compound 3: 5 mg kg-1 each
# Protocol: All experimental protocols were approved by internal guidelines. Different concentrations of drugs were administered I.P. in a 1 ml kg-1 (milliliters per kilogram) volume, except M6G, which was given s.c. (subcutaneously) in a 0.1 ml kg-1 volume.
# Food and water were presented in inverted glass bottles that attached to the outside of the cage. Food was available for 18 h each day starting at 16:00 h (12 h light-dark cycle; lights off 16:00 h).
# Intake measurements were taken at 1.5 h, 3 h, 5 h, and 18 h after food became available.
# Rats were habituated to testing and handling procedures as before. […] Food intake and body weight were monitored daily.
# On the day of the experiment each rat received only a single injection, 30 min later food was made available as described in experiment 1. Food intake was measured 0.5, 1.5, 3, 5, and 18 h after administration. Food intake and body weight were monitored daily for five days after the experiment to assess the sustained effect of a single administration of each compound.
# [2] = biological target: CB1 receptor (Rattus norvegicus, UniProt P20272); assay: Thermoregulation assay: hypothermia induced by the CB1 agonist CP55,940; assay type: in vivo; design: antagonized CB1 receptors in vivo; from tissue; host or cells: whole animal, male SD rats; settings: 5 mg kg-1 pre-treatment 45 min before CP55,940 0.3 mg kg-1; compared with vehicle
# Chain of CB1 receptor (P20272 whole entry): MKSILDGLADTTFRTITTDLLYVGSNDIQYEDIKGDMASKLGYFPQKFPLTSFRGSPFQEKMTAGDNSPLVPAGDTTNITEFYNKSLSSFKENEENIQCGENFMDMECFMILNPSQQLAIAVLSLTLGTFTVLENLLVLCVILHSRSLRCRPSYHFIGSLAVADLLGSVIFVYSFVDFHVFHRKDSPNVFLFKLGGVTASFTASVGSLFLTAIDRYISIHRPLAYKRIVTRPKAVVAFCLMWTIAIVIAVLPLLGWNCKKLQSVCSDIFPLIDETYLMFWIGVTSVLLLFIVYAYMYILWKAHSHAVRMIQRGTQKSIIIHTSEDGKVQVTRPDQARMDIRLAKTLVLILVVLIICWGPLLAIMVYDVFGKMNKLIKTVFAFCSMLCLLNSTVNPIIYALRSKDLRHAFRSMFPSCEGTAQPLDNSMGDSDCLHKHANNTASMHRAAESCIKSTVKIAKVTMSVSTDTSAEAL
# Protocol: Briefly, silicone coated temperature data loggers (SubCue Inc, Calgary, Canada) were surgically implanted into the abdominal cavity of male SD (450-500 g) rats under isoflurane anesthesia (4% induction; 2-2.5% maintenance). Rats were allowed to recover for 3 days before being acclimatized to testing and handling procedures for an additional seven days. Core body temperature readings were sampled every 5 min for 300 min during the course of each experiment.
# [3] = biological target: T1, hCB1 (Homo sapiens, UniProt P21554); assay: Forskolin-stimulated cAMP assay; assay type: cell-based; settings: HEK293 cells transfected with human CB1 receptors
# T1 construct: expressed in transfected cells; host or cells: HEK293
# T1 sequence (P21554 whole entry): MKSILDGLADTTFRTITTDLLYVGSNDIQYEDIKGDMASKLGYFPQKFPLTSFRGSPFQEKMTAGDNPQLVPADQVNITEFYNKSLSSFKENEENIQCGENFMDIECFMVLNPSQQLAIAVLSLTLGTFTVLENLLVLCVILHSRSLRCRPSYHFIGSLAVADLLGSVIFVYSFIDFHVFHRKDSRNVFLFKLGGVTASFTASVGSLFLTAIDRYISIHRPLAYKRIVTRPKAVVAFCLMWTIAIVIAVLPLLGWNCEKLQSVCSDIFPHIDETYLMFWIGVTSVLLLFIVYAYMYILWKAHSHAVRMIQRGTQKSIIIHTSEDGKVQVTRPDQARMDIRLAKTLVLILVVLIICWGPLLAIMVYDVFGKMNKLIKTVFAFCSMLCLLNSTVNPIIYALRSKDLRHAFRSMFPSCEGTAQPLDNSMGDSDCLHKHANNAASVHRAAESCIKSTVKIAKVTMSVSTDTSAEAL
# Protocol: Intracellular cAMP levels were measured with a competitive protein-binding assay using intact HEK293 cells expressing hCB1 or hCB2 and a cAMP immunoassay kit from Sigma (St. Louis, Mo.). In short, forskolin stimulated cells were incubated with various concentrations of compound, cAMP anti-body and cAMP conjugate for 2 hours at ambient temperature. The reaction was stopped by emptying the wells followed by the addition of p-NPP substrate and incubation for 1 hour. […] The results were expressed as percent inhibition of forskolin-stimulated cAMP accumulation and EC50 curves were generated with the use of GraphPad Prism software.
# [4] = system: Rats; assay: Operant lever pressing on FR5 schedules; assay type: in vivo, rat; settings: for ED50: Rattus norvegicus
# Protocol: Following the initial training period, rats (n=8 each group) were injected with drug and then tested once a week on Thursdays. For experiments 1 and 2, Compound 3 or Compound 2, respectively were injected IP at doses of 1.0, 2.0, 4.0, or 8.0 mg/kg or vehicle. Pretreatment time for these two experiments was 30 min. For experiments 3 and 4, rats were given drug or vehicle orally 1 hour before testing. In experiment 3, rats were given vehicle or 8.0, 16.0, or 32.0 mg/kg Compound 3. In experiment 4, rats received vehicle or Compound 2 at doses of 4.0, 8.0, or 16.0 mg/kg. All doses were given in a randomized order using a repeated measures design.
Structure (SMILES),"acute effect on food intake compared with vehicle ([1]; experiment A, 5 mg kg-1 I.P. single dose)","food intake, difference to rats treated with Compound 3 ([1]; experiment A, 5 h) [g]","food intake, difference to rats treated with Compound 3 ([1]; experiment A, 18 h) [g]","early effect on food intake at each time point ([1]; experiment C, 5 mg kg-1 single dose)","weight gain for several days after the experiment ([1]; experiment C, single administration (Compound 1 5 mg kg-1; Compound 3 10, 20 mg kg-1))","hypothermic effect of CP55,940 [2]",effect on forskolin stimulated cAMP production [3],"suppression of FR5 responding compared to vehicle ([4]; IP 1.0, 2.0, 4.0, 8.0 mg/kg)","ED50 ([4]; IP, pretreatment 30 min, read-out: ED50 for the effect on FR5 responding) [mg/kg]","ED50 ([4]; oral, 1 hour before testing, read-out: ED50 for suppression of lever pressing on FR5) [mg/kg]","change in lever pressing on FR5 compared to vehicle ([4]; oral, 1 hour before testing (Compound 3 8.0-32.0 mg/kg; Compound 2 4.0-16.0 mg/kg))"
"Cc1c(C(=O)NN2CCCCC2)nn(-c2ccc(Cl)cc2Cl)c1-c1ccc(I)cc1 [Compound 1, N-(Piperidin-1-yl)-5-(4-iodophenyl)-1-(2,4-dichlorophenyl)-4-methyl-1H-pyrazole-3-carboxamide, reference compound]",significantly reduced food intake,-15.5,-26.1,significantly reduced food intake,significantly reduced,significantly attenuated,,,,,
Cc1c(C(=O)NN2CCOCC2)nn(-c2ccc(Cl)cc2Cl)c1-c1ccc(C#CCCC#N)cc1 [Compound 2],,,,,,,no effect,significantly suppressed,0.576,1.49,dose-dependent decrease
